Data: patent US20230266302A1, “SYNTHESIS AND USE OF N-BENZYL SULFONAMIDES” (THE UNIVERSITY OF TULSA, priority 2020, published 2023)

What was measured:
Assay in all cases: ATP level assay (CellTiter-Glo), percent of control
Assay type in all cases: cell-based
[1] = tested on: BxPC3 (pancreatic cancer); conditions: two hour incubation; for activity at 100 µM: Homo sapiens, BXPC-3, 2 h, compound alone, control DMSO, read-out: POC (percent of control) BxPC3
T47D (breast cancer) = conditions: two hour incubation; for activity at 100 µM: Homo sapiens, T47D, 2 h, compound alone, control DMSO, read-out: POC (percent of control) T47D
[2] = tested on: MCF10A (non-cancerous breast); conditions: two hour incubation; for activity at 100 µM: Homo sapiens, MCF-10A, 2 h, compound alone, control DMSO, read-out: POC (percent of control) MCF10A
NCI-H196 (lung cancer) = conditions: two hour incubation; for activity at 100 µM: NCI-H196, 2 h, compound alone, control DMSO, read-out: POC (percent of control) NCI-H196
MDA-MB (breast cancer) = conditions: two hour incubation; for activity at 100 µM: 2 h, compound alone, control DMSO, read-out: POC (percent of control) MDA-MB
MCF7 (breast cancer) = conditions: two hour incubation; for activity at 100 µM: Homo sapiens, MCF7, 2 h, compound alone, control DMSO, read-out: POC (percent of control) MCF7
PC3 (prostate cancer) = conditions: two hour incubation; for activity at 100 µM: 2 h, compound alone, control DMSO, read-out: POC (percent of control) PC3
HeLa (cervical cancer) = conditions: two hour incubation; for activity at 100 µM: Homo sapiens, HeLa, 2 h, compound alone, control DMSO, read-out: POC (percent of control) HeLa
H293 (kidney cancer) = conditions: two hour incubation; for activity at 100 µM: 2 h, compound alone, control DMSO, read-out: POC (percent of control) H293
[3] = compound 100 uM + rotenone (approximately 1.25 μM)
[4] = compound 100 uM + 2DG (about 10-20 mM)

SMILES | activity at 100 µM [1] [%] | POC (percent of control) BxPC3 [1, 3] | activity at 100 µM (T47D (breast cancer)) [%] | POC (percent of control) T47D (T47D (breast cancer); [4]) | POC (percent of control) T47D (T47D (breast cancer); [3]) | activity at 100 µM [2] [%] | POC (percent of control) MCF10A [2, 4] | POC (percent of control) MCF10A [2, 3] | activity at 100 µM (NCI-H196 (lung cancer)) [%] | POC (percent of control) NCI-H196 (NCI-H196 (lung cancer); [4]) | POC (percent of control) NCI-H196 (NCI-H196 (lung cancer); [3]) | activity at 100 µM (MDA-MB (breast cancer)) [%] | POC (percent of control) MDA-MB (MDA-MB (breast cancer); [4]) | POC (percent of control) MDA-MB (MDA-MB (breast cancer); [3]) | activity at 100 µM (MCF7 (breast cancer)) [%] | POC (percent of control) MCF7 (MCF7 (breast cancer); [4]) | POC (percent of control) MCF7 (MCF7 (breast cancer); [3]) | activity at 100 µM (PC3 (prostate cancer)) [%] | POC (percent of control) PC3 (PC3 (prostate cancer); [4]) | POC (percent of control) PC3 (PC3 (prostate cancer); [3]) | also measured
O=S(=O)(NCc1c[nH]c2ccccc12)c1ccc(Cl)cc1 [Compound 2, N-[(1H-indol-3-yl)methyl]-4-chlorobenzenesulfonamide] | 69 | 86.4% of control | 22.2 | 16.6% of control | 30.8% of control | 42.9 | 23.7% of control | 58.7% of control | 50.9 | 22.9% of control | 23.5% of control | 48.1 | 37.8% of control | 55.7% of control | 70.1 | 25.1% of control | 56.9% of control | 30.9 | 16.7% of control | 36.6% of control | activity at 100 µM (HeLa (cervical cancer)): 64.6%; POC (percent of control) HeLa (HeLa (cervical cancer); [4]): 30.8% of control; POC (percent of control) HeLa (HeLa (cervical cancer); [3]): 57.5% of control; activity at 100 µM (H293 (kidney cancer)): 43.8%; POC (percent of control) H293 (H293 (kidney cancer); [4]): 20% of control; POC (percent of control) H293 (H293 (kidney cancer); [3]): 47.6% of control
Cc1cccc2c(CNS(=O)(=O)c3ccccc3)c[nH]c12 [Compound 6, N-[(7-methyl-1H-indol-3-yl)methyl]benzenesulfonamide] | 68.9 | 69.7% of control | 23.7 | 19.7% of control | 39.1% of control | 52.3 | 41.3% of control | 87.8% of control | 64.3 | 34.3% of control | 23.7% of control | 57.2 | 58.5% of control | 67.3% of control | 72 | 41% of control | 63.4% of control | 38.3 | 35.9% of control | 54.3% of control | POC (percent of control) BxPC3 [1, 4]: 33.4% of control; activity at 100 µM (HeLa (cervical cancer)): 75.3%; POC (percent of control) HeLa (HeLa (cervical cancer); [4]): 47.3% of control; POC (percent of control) HeLa (HeLa (cervical cancer); [3]): 66.9% of control; activity at 100 µM (H293 (kidney cancer)): 62.6%; POC (percent of control) H293 (H293 (kidney cancer); [4]): 31.6% of control; POC (percent of control) H293 (H293 (kidney cancer); [3]): 49.6% of control
Cc1ccc(S(=O)(=O)NCc2c[nH]c3cccc(Br)c23)cc1 [Compound 5, N-[(4-bromo-1H-indol-3-yl)methyl]-4-methylbenzenesulfonamide] | 54.3 | 36.5% of control | 36.6 | 13.8% of control | 36% of control | 55.3 | 15.8% of control | 45% of control | 47.7 | 4.2% of control | 9.1% of control | 54.4 | 24.7% of control | 24.6% of control | 86.4 | 18.7% of control | 55.6% of control | 68.3 | 4.8% of control | 18.3% of control | POC (percent of control) BxPC3 [1, 4]: 10.5% of control; activity at 100 µM (HeLa (cervical cancer)): 76.1%; POC (percent of control) HeLa (HeLa (cervical cancer); [4]): 22.3% of control; POC (percent of control) HeLa (HeLa (cervical cancer); [3]): 31.9% of control; activity at 100 µM (H293 (kidney cancer)): 49.7%; POC (percent of control) H293 (H293 (kidney cancer); [4]): 17.2% of control; POC (percent of control) H293 (H293 (kidney cancer); [3]): 41.2% of control
